In brackets after ≈: the same amount, converted by molar mass. Activity calls are given as the source filed them. The calls are words filed in the database; no cut-off is given here.
Experiments:
[1] = Stability in cynomolgus monkey liver microsomes assessed as compound metabolism; assay type: ADME, Macaca fascicularis, microsome
[2] = Stability in human liver microsomes assessed as compound metabolism; assay type: ADME, microsome
[3] = target: Voltage-gated inwardly rectifying potassium channel KCNH2 (Homo sapiens, UniProt Q12809); assay: Inhibition of human ERG at 30 uM
Canis familiaris [4] = assay: Clearance in beagle dog at 1 mg/kg, iv by LC-MS/MS method relative to liver blood flow; assay type: ADME, organism-based, Canis lupus familiaris; conditions: in vivo
[5] = Ratio of drug level in liver to plasma of dog; assay type: ADME, cell-free, Canis lupus familiaris
Hepatocyte [6] = assay: Stability in rat hepatocytes assessed as compound metabolism; assay type: ADME, cell-based
Rattus norvegicus [7] = assay: Clearance in Sprague-Dawley rat at 2.5 mg/kg, iv by LC-MS/MS method relative to liver blood flow; assay type: ADME, organism-based; conditions: in vivo
[8] = Protein binding in dog plasma; assay type: ADME, cell-free, Canis lupus familiaris; conditions: read-out: PPB
[9] = Drug excretion in dog assessed as unchanged compound level at 1 mg/kg, iv; assay type: ADME, organism-based, Canis lupus familiaris; conditions: in vivo
[10] = Ratio of drug level in liver to plasma of cynomolgus monkey; assay type: ADME, cell-free, Macaca fascicularis
[11] = Drug excretion in rat urine assessed as unchanged compound level at 2.5 mg/kg, iv; assay type: ADME, organism-based; conditions: read-out: Drug excretion
Canis familiaris [12] = assay: Toxicity in male dog up to 750 mg/kg/day, po for 7 days; assay type: organism-based, Canis lupus familiaris; conditions: in vivo, 168 h
Hepatocyte [13] = assay: Stability in cynomolgus monkey hepatocytes assessed as compound metabolism; assay type: ADME, cell-based, Macaca fascicularis
Rattus norvegicus [14] = assay: Toxicity in male rat assessed as increase in monocyte level at 750 mg/kg/day, po for 7 days; assay type: organism-based; conditions: in vivo, 168 h
[15] = target: T1, Nuclear receptor subfamily 1 group I member 2 (Homo sapiens, UniProt O75469); assay: Activation of PXR (unknown origin); assay type: ADME
T1 sequence (O75469 whole entry): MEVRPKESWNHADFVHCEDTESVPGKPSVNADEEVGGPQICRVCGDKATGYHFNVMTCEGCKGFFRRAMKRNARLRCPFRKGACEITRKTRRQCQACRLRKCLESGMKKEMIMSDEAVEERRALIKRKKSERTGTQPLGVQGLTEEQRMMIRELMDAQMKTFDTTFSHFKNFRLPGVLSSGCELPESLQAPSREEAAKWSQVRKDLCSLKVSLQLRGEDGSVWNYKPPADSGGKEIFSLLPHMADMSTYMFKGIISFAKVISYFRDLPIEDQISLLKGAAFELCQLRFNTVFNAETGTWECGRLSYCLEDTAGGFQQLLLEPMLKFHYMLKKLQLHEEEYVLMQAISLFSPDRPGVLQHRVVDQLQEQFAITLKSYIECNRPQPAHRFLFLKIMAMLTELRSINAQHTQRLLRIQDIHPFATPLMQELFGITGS

Cytochrome P450 3A4 = Cytochrome P450 3A4 (Homo sapiens, UniProt P08684); assay: Inhibition of CYP3A4 (unknown origin); assay type: ADME
[16] = Ratio of drug level in liver to plasma of rat; assay type: ADME, cell-free
[17] = target: T1, Nuclear receptor subfamily 1 group I member 2; assay: Activation of PXR in human hepatocytes assessed as induction of […] mRNA expression; assay type: ADME, cell-based
[18] = Protein binding in cynomolgus monkey plasma; assay type: ADME, cell-free, Macaca fascicularis; conditions: read-out: PPB
[19] = Toxicity in female rat up to 30 mg/kg/day, po for 4 days; assay type: organism-based; conditions: in vivo
[20] = target: T2, Solute carrier organic anion transporter family member 1B1 (Homo sapiens, UniProt Q9Y6L6); assay: Inhibition of human OATP1B1; assay type: ADME
T2 sequence (Q9Y6L6 whole entry): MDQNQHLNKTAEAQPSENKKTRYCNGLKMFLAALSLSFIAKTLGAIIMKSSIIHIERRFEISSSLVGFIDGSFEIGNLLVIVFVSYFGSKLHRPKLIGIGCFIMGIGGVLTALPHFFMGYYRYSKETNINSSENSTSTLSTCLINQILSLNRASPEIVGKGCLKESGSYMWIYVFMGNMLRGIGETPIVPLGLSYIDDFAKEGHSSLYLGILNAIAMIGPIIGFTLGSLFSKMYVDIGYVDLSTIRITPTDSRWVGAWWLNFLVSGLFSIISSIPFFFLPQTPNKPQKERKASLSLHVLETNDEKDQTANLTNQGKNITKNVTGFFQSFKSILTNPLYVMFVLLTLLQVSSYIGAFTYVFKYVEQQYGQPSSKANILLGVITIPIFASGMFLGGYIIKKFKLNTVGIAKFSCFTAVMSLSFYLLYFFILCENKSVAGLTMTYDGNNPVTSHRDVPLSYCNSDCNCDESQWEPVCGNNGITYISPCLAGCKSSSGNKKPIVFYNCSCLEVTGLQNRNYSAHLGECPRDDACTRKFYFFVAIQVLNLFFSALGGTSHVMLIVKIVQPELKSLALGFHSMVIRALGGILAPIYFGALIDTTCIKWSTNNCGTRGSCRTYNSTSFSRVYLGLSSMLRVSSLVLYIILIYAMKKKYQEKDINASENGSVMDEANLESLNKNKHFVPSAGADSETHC

Cytochrome P450 2D6 = Cytochrome P450 2D6 (Homo sapiens, UniProt P10635); assay: Inhibition of CYP2D6 (unknown origin); assay type: ADME
[21] = Ratio of drug level in brain to plasma of cynomolgus monkey; assay type: ADME, cell-free, Macaca fascicularis; conditions: read-out: BPR
[22] = Ratio of drug level in brain to plasma of rat; assay type: ADME, cell-free; conditions: read-out: BPR
Rattus norvegicus [23] = assay: Toxicity in male rat assessed as induction of mortality up to 750 mg/kg/day, po for 7 days; assay type: organism-based; conditions: in vivo, 168 h
[24] = Dissociation constant, pKa of the compound; assay type: physicochemical
[25] = Permeability in MDCK2 cells; assay type: ADME, cell-based, Canis lupus familiaris, MDCK-II; conditions: dog, MDCK; read-out: permeability
[26] = Stability in dog liver microsomes assessed as compound metabolism; assay type: ADME, Canis lupus familiaris, microsome
[27] = Protein binding in rat plasma; assay type: ADME, cell-free; conditions: read-out: PPB
Hepatocyte [28] = assay: Stability in dog hepatocytes assessed as compound metabolism; assay type: ADME, cell-based, Canis lupus familiaris
Cynomolgus monkey = assay: Clearance in cynomolgus monkey at 1 mg/kg, iv by LC-MS/MS method relative to liver blood flow; assay type: ADME, organism-based, Macaca fascicularis; conditions: in vivo
[29] = Stability in rat liver microsomes assessed as compound metabolism; assay type: ADME, microsome
[30] = Solubility in pH 3.1 buffer; assay type: physicochemical
[31] = Drug excretion in rat feces assessed as unchanged compound level at 2.5 mg/kg, iv; assay type: ADME, organism-based; conditions: faeces, read-out: Drug excretion
[32] = Cytotoxicity in human HuH7 replicon cells by MTS assay; assay type: cell-based, Huh-7
Rattus norvegicus [33] = assay: Toxicity in male rat assessed as increase in monocyte level at 100 mg/kg/day, po for 7 days; assay type: organism-based; conditions: in vivo, 168 h
[34] = Therapeutic index, ratio of CC50 for human HuH7 replicon cells to EC50 for inhibition of HCV NS5A in HCV genotype 1b assessed as reduction in viral replication by cell based replicon assay; assay type: toxicity; conditions: read-out: Ratio CC50/EC50
[35] = target: T3, PXR (Nuclear receptor subfamily 1 group I member 2) (Homo sapiens, UniProt O75469); assay: Activation of PXR (unknown origin) relative to rifampicin; assay type: ADME; conditions: read-out: FC
T3 sequence (O75469 whole entry): T1 sequence (O75469 whole entry)

Cytochrome P450 2C9 = Cytochrome P450 2C9 (Homo sapiens, UniProt P11712); assay: Inhibition of CYP2C9 (unknown origin); assay type: ADME
Hepatocyte [36] = assay: Stability in human hepatocytes assessed as compound metabolism; assay type: ADME, cell-based
[37] = target: Voltage-gated L-type calcium channel (Homo sapiens, UniProt Q13936+Q13698+Q01668+O60840); assay: Inhibition of L-type calcium channel (unknown origin) at 30 uM; assay type: protein assay
[38] = Drug excretion in rat bile assessed as unchanged compound level at 2.5 mg/kg, iv; assay type: ADME, organism-based; conditions: read-out: Drug excretion
[39] = Ratio of drug level in brain to plasma of dog; assay type: ADME, cell-free, Canis lupus familiaris; conditions: read-out: BPR
[40] = Solubility in pH 7.3 buffer; assay type: physicochemical
Salmonella typhimurium = assay: Genotoxicity in Salmonella typhimurium by Ames test; assay type: toxicity, organism-based; conditions: salmonella enterica subsp. enterica serovar typhimurium
[41] = Clearance in Sprague-Dawley rat at 2.5 mg/kg, iv by LC-MS/MS method; assay type: ADME, organism-based; conditions: in vivo
[42] = Oral bioavailability in Sprague-Dawley rat at 2 mg/kg by LC-MS/MS method; assay type: ADME, organism-based; conditions: in vivo
[43] = Oral bioavailability in beagle dog at 1 mg/kg by LC-MS/MS method; assay type: ADME, organism-based, Canis lupus familiaris; conditions: in vivo
Homo sapiens = species on record: Homo sapiens; assay: Inhibition of IKs channel (unknown origin) at 30 uM
[44] = Effective half life in Sprague-Dawley rat at 2.5 mg/kg, iv by LC-MS/MS method; assay type: ADME, organism-based; conditions: in vivo, read-out: t1/2eff (converted)
[45] = Effective half life in cynomolgus monkey at 1 mg/kg, iv by LC-MS/MS method; assay type: ADME, organism-based, Macaca fascicularis; conditions: in vivo, read-out: t1/2eff (converted)
[46] = Clearance in cynomolgus monkey at 1 mg/kg, iv by LC-MS/MS method; assay type: ADME, organism-based, Macaca fascicularis; conditions: in vivo
Canis familiaris [47] = assay: AUC in beagle dog at 1 mg/kg, po by LC-MS/MS method; assay type: ADME, organism-based, Canis lupus familiaris; conditions: in vivo
[48] = Effective half life in beagle dog at 1 mg/kg, iv by LC-MS/MS method; assay type: ADME, organism-based, Canis lupus familiaris; conditions: in vivo, read-out: t1/2eff (converted)
[49] = Drug level in Sprague-Dawley rat at 2 mg/kg, po after 24 hrs by LC-MS/MS method; assay type: ADME, organism-based; conditions: in vivo, read-out: Drug uptake
[50] = Drug level in beagle dog at 1 mg/kg, po after 24 hrs by LC-MS/MS method; assay type: ADME, organism-based, Canis lupus familiaris; conditions: in vivo, read-out: Drug uptake
Rattus norvegicus [51] = assay: AUC in Sprague-Dawley rat at 2 mg/kg, po by LC-MS/MS method; assay type: ADME, organism-based; conditions: in vivo
[52] = Clearance in beagle dog at 1 mg/kg, iv by LC-MS/MS method; assay type: ADME, organism-based, Canis lupus familiaris; conditions: in vivo

Chain of Cytochrome P450 3A4 (P08684 whole entry): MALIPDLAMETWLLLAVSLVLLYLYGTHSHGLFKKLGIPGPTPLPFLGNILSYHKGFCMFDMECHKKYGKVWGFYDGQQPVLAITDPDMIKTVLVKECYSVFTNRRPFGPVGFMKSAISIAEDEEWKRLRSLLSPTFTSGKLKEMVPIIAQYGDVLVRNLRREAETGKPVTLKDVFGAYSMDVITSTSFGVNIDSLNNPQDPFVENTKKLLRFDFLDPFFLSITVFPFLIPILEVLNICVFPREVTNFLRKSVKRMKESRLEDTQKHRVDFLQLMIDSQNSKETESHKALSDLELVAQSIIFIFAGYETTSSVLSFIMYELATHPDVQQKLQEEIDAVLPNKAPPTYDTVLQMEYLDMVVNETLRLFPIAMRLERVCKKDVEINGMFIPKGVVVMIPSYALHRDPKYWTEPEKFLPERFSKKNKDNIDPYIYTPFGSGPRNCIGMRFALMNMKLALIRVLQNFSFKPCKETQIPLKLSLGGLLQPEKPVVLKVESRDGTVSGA
Chain of Cytochrome P450 2D6 (P10635 whole entry): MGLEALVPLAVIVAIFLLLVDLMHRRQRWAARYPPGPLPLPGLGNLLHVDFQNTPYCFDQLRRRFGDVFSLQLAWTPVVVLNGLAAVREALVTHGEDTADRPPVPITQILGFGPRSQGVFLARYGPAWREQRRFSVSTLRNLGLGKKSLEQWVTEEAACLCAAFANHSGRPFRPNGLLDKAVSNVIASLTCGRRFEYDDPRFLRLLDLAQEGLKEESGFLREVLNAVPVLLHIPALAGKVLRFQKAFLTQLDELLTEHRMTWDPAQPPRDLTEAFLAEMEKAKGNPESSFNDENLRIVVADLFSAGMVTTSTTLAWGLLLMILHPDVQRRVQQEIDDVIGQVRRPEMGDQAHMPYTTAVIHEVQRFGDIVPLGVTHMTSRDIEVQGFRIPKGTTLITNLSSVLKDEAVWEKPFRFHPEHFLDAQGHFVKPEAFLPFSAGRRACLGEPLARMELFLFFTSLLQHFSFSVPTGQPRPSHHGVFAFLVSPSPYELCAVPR
Chain of Cytochrome P450 2C9 (P11712 whole entry): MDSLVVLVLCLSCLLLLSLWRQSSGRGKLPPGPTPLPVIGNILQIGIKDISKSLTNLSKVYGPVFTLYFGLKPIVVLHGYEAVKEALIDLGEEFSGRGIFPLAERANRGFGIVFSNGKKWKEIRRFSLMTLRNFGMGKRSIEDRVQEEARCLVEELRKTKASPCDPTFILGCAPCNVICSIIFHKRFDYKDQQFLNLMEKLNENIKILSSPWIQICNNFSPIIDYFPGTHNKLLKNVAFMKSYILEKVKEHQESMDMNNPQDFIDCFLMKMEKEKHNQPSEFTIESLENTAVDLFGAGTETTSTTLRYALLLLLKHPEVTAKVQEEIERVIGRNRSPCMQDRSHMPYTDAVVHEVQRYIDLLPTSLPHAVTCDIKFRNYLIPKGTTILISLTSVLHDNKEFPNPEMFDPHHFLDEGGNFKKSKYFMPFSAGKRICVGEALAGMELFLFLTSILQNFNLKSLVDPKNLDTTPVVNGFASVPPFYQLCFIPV
Chain of Voltage-gated inwardly rectifying potassium channel KCNH2 (Q12809 whole entry): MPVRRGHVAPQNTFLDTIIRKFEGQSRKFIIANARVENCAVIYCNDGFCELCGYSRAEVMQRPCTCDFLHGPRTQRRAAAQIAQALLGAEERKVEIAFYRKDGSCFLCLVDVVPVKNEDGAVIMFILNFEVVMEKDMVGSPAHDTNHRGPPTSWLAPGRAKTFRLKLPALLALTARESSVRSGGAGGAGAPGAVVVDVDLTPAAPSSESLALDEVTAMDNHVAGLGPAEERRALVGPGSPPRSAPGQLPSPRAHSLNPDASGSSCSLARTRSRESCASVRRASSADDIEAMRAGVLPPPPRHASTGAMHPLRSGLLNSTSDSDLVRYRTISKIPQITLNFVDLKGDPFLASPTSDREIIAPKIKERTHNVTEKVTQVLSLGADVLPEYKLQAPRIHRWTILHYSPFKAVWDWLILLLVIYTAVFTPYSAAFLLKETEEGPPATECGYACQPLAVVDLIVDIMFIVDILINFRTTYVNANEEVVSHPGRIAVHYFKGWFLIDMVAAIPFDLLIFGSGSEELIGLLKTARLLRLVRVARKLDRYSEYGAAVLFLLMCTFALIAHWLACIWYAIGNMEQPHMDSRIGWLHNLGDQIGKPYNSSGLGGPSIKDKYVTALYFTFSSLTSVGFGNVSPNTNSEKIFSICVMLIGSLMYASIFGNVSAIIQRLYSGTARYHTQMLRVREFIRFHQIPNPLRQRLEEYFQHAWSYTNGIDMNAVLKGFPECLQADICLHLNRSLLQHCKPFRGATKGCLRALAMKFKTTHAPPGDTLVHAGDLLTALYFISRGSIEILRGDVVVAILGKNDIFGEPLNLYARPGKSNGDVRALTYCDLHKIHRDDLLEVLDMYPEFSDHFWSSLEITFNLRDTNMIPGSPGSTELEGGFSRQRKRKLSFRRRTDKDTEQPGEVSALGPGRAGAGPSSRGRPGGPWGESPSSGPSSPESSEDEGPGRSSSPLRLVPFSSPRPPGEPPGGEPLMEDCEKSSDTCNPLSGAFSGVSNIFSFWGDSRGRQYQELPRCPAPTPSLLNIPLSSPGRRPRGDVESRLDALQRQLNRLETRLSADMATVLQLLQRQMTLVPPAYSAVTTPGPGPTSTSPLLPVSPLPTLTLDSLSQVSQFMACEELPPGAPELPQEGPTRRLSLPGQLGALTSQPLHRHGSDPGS

SMILES: COC(=O)N[C@H](C(=O)N1CC(F)(F)C[C@H]1c1ncc(-c2ccc(-c3ccc4c(ccc5nc([C@@H]6C[Si](C)(C)CN6C(=O)[C@@H](NC(=O)OC)C(C)C)[nH]c54)c3)cc2)[nH]1)C(C)C
- Stability [1]: Stable
- Stability [2]: Stable
- inhibition (INH) [3]: Not Active
- clearance (Canis familiaris [4]): 3 to 7%
- Kp [5]: 27
- Stability (Hepatocyte [6]): Stable
- clearance (Rattus norvegicus [7]): 3 to 7%
- fraction unbound [8]: < 0.001
- Drug excretion [9]: Active
- Kp [10]: 27
- dose excreted [11]: 27%
- Activity (Canis familiaris [12]): Non-Toxic
- Stability (Hepatocyte [13]): Stable
- Activity (Rattus norvegicus [14]): Toxic
- Activity [15]: > 10 µM
- INH (Cytochrome P450 3A4): > 20 µM
- Kp [16]: 27
- Activity [17]: > 3 µM
- fraction unbound [18]: < 0.001
- NOAEL at 96 h [19]: > 30 mg/kg/day
- inhibition (INH) [20]: Active
- INH (Cytochrome P450 2D6): > 20 µM
- Kp [21]: 0.04
- Kp [22]: 0.04
- Activity (Rattus norvegicus [23]): Non-Toxic
- pKa [24]: 3.57 to 5.69
- Papp [25]: 0.8 ×10⁻⁶ cm/s
- Stability [26]: Stable
- fraction unbound [27]: < 0.001
- Stability (Hepatocyte [28]): Stable
- clearance (Cynomolgus monkey): 3 to 7%
- Stability [29]: Stable
- solubility [30]: 65 µg/mL (≈ 77.1 µM)
- dose excreted [31]: 27%
- CC50 [32]: > 25 µM
- Activity (Rattus norvegicus [33]): Toxic
- selectivity ratio [34]: > 8e+06
- fold induction [35]: 0.2
- INH (Cytochrome P450 2C9): > 20 µM
- Stability (Hepatocyte [36]): Stable
- inhibition (INH) [37]: Not Active
- dose excreted [38]: 27%
- Kp [39]: 0.04
- solubility [40]: 2.7 µg/mL (≈ 3.2 µM)
- Activity (Salmonella typhimurium): Non-Toxic

SMILES: COC(=O)N[C@H](C(=O)N1CCC[C@H]1c1ncc(-c2ccc(-c3cc4cc(-c5cnc([C@@H]6CCCN6C(=O)[C@@H](NC(=O)OC)C(C)C)[nH]5)ccc4o3)cc2)[nH]1)C(C)C
- clearance [41]: 9.3 mL/min/kg
- bioavailability [42]: 38%
- bioavailability [43]: 26%
- Activity [15]: 3 µM
- INH (Cytochrome P450 3A4): > 20 µM
- inhibition (Homo sapiens): inactive
- half-life [44]: 2 h
- INH (Cytochrome P450 2D6): > 20 µM
- half-life [45]: 3 h
- clearance [46]: 9.1 mL/min/kg
- AUC (Canis familiaris [47]): 1.1 uM.hr/ml
- half-life [48]: 4.7 h
- CC50 [32]: 7 µM
- concentration at 24 h [49]: 4 nM
- concentration at 24 h [50]: 4 nM
- INH (Cytochrome P450 2C9): > 20 µM
- AUC (Rattus norvegicus [51]): 1.7 uM.hr/ml
- clearance [52]: 6.4 mL/min/kg

Source: ChEMBL document CHEMBL4118125, “MK-8325: A silyl proline-containing NS5A inhibitor with pan-genotype activity for treatment of HCV” (Bioorg Med Chem Lett, 2018)
